The values below come from US20090012103A1, “SUBSTITUTED HETEROCYCLIC COMPOUNDS” (priority 2007, published 2009).

SMILES strings stand for the structures.

wild-type human cardiac sodium channel, hNav1.5, sequence (Q14524 whole entry): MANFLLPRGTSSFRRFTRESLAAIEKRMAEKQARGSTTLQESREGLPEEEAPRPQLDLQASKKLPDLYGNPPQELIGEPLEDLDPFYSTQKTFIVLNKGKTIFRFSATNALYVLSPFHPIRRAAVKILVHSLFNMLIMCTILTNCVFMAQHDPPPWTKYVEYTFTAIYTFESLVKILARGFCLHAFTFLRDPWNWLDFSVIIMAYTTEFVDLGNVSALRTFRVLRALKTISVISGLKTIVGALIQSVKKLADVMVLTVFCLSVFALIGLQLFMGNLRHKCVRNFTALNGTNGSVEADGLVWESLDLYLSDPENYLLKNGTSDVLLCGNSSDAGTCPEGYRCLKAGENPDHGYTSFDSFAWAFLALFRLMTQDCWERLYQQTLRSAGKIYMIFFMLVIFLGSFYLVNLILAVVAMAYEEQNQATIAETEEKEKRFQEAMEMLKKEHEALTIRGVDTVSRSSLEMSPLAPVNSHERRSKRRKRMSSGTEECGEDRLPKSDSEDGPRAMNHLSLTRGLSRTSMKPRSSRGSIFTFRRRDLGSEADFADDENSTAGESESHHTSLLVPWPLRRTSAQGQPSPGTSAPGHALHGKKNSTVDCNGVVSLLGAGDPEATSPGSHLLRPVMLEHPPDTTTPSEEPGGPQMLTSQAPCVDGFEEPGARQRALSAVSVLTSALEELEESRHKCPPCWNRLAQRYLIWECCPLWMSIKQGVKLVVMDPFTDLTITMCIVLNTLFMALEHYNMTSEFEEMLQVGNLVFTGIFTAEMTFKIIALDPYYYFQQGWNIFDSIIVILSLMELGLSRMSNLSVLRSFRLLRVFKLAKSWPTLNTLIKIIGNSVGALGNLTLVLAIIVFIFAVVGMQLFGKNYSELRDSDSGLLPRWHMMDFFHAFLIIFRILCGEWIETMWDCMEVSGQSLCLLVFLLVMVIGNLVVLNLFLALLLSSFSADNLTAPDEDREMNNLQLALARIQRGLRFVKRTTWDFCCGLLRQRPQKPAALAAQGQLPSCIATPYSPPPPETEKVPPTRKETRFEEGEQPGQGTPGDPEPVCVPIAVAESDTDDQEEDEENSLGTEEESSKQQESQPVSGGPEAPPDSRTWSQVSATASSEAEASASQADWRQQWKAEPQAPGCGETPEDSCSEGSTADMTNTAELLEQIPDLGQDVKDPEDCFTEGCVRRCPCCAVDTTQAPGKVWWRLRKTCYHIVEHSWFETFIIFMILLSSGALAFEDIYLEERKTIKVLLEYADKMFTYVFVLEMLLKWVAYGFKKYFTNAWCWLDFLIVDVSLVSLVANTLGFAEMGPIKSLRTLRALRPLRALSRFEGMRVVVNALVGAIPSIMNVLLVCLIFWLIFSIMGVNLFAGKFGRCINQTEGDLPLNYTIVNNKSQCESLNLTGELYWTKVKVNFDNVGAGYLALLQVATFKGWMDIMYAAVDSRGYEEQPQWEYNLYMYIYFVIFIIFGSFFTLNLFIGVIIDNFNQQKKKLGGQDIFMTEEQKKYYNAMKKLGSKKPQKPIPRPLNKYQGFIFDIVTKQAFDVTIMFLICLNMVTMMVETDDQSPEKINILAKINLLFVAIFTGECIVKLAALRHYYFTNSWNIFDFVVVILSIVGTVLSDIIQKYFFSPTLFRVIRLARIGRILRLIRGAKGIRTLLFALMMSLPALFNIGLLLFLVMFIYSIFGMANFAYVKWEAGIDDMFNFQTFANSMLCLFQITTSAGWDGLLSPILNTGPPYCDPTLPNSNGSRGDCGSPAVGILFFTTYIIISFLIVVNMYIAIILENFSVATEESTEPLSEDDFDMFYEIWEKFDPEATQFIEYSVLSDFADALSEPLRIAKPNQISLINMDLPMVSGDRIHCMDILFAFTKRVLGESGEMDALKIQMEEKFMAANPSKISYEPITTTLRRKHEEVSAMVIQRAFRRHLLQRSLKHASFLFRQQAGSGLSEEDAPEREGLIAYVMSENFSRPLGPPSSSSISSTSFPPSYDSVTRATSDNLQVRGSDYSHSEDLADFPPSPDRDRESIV

In one experiment the target is wild-type human cardiac sodium channel, hNav1.5 (Homo sapiens, UniProt Q14524). Put plainly: Late INa screening assay (late sodium current, PatchXpress whole cell patch clamp). It is filed as cell-based. The following applies: compound at 10 μM. Here is the method:
The late sodium current (Late INa) and peak sodium current (Peak INa) assays are performed on an automated electrophysiology platform, PatchXpress 7000A (MDS Analytical Technologies, Sunnyvale, Calif.), which uses the whole cell patch clamp technique to measure currents through the cell membrane of up to 16 cells at a time. The assay uses an HEK293 (human embryonic kidney) cell line heterologously expressing the wild-type human cardiac sodium channel, hNav1.5, purchased from Millipore (Billerica, Mass.). No beta subunits were coexpressed with the Na channel alpha subunit. […] Experiments are carried out at 24-27° C.
For both the Late INa and Peak INa assays, series resistance compensation is set to 50% and whole-cell compensation is performed automatically. […] Currents through open sodium channels are automatically recorded and stored in the DataXpress2 database (MDS Analytical Technologies, Sunnyvale, Calif.). Analysis is performed using DataXpress2 analysis software and data are compiled in Excel.
Compound stocks are routinely made in glass vials to 10 mM in dimethyl sulfoxide (DMSO). In some cases, when compounds are not soluble in DMSO, they are made in 100% ethanol. Stocks are sonicated as necessary. The extracellular solution for screening Late INa is composed of: 140 mM NaCl, 4 mM KCl, 1.8 mM CaCl2, 0.75 mM MgCl2, and 5 mM HEPES with pH adjusted to 7.4 using NaOH. The extracellular solution for screening Peak INa is composed of: 20 mM NaCl, 120 mM N-methyl-D glucamine, 4 mM KCl, 1.8 mM CaCl2, 0.75 mM MgCl2, and 5 mM HEPES with pH adjusted to 7.4 using HCl. The intracellular solution used to perfuse the inside of the cells for both the Late INa and Peak INa assays contains: 120 mM CsF, 20 mM CsCl, 5 mM EGTA, 5 mM HEPES and pH adjusted to 7.4 with CsOH. Compounds are diluted in extracellular solution to 10 μM in glass vials and then transferred to glass well plates before robotic addition to the cells. The 0 Na extracellular solution used at the end of each experiment for the Late INa and Peak INa assays to measure baseline current contains: 140 mM N-methyl-D-glucamine; 4 mM KCl; 1.8 mM CaCl2; 0.75 mM MgCl2; 5 mM HEPES and pH was adjusted to 7.4 with HCl.
For the Late INa assay, sodium channels are activated every 10 seconds (0.1 Hz) by depolarizing the cell membrane to −20 mV for 250 milliseconds (ms) from a holding potential of −120 mV.
All compounds are tested to determine their activity in blocking the late sodium current. Late INa current is generated by adding 10 μM Tefluthrin (pyrethroid) to the extracellular solution while recording Na currents. […] For some experiments, 50 nM ATX II (sea anemone toxin), another late INa activator, was used to generate the late component. […] Baseline current in the absence of Na^+ ions is measured at the end of each experiment (after two additions of 0 Na solution-see above) and is used to calculate the percent block by compound.
(In patch-clamp work, channel activity is measured electrically.)
For `CC1=C(C(=O)OC(C)C)C(c2c[nH]nc2-c2ccc(F)cc2)C(C(=O)OC(C)C)=C(C)N1` [PT-128, diisopropyl 4-(3-(4-fluorophenyl)-1H-pyrazol-4-yl)-2,6-dimethyl-1,4-dihydropyridine-3,5-dicarboxylate], the “Late INa % blk” value stood at 34.1%.

Still in this experiment, the particulars now being: compound at 10 μM; read-out: Late INa % blk.
Consider `N#CC1=C(N)OC2=C(C(=O)CC2)C1c1ccc(Br)cc1` (centres unmarked) [PT-093, 2-amino-4-(4-bromophenyl)-5-oxo-4,5,6,7-tetrahydrocyclopenta[b]pyran-3-carbonitrile], for which the inhibition at 10 µM was -2.6%.
As to `CC1(C)CC(=O)C2=C(C1)OC(N)=C(C#N)C2c1cccc(C(=O)O)c1` (centres unmarked) [PT-098, 3-(2-amino-3-cyano-7,7-dimethyl-5-oxo-5,6,7,8-tetrahydro-4H-chromen-4-yl)benzoic acid], the inhibition at 10 µM is -27.9%.
On to `CCOC(=O)C1=C(C)NC(C)=C(C(=O)OCC)C1c1ccc(C(=O)O)s1` [PT-112, 5-(3,5-bis(ethoxycarbonyl)-2,6-dimethyl-1,4-dihydropyridin-4-yl)thiophene-2-carboxylic acid], for which the inhibition at 10 µM was -24.9%.
For `CCOC(=O)c1c(C)nc(C)c(C(=O)OCC)c1-c1sc2ccccc2c1C` [PT-117, diethyl 2,6-dimethyl-4-(3-methylbenzo[b]thiophen-2-yl)pyridine-3,5-dicarboxylate], the inhibition at 10 µM stood at 38.9%.
Same read-out and setting: then `CCOC(=O)C1=C(C)NC(C)=C(C(=O)OCC)C1c1ccc(-c2ccc(Cl)cc2)o1` [PT-118, diethyl 4-(5-(4-chlorophenyl)furan-2-yl)-2,6-dimethyl-1,4-dihydropyridine-3,5-dicarboxylate], with -3.8%.
The same measure, in the same setting: to `CCOC(=O)C1=C(C)NC(C)=C(C(=O)OCC)C1c1ccc(-c2ccccc2C(F)(F)F)o1` [PT-119, diethyl 2,6-dimethyl-4-(5-(2-(trifluoromethyl)phenyl)furan-2-yl)-1,4-dihydropyridine-3,5-dicarboxylate] belongs 3.8%; to `CCOC(=O)C1=C(C)NC(C)=C(C(=O)OCC)C1c1ccoc1` [PT-120, diethyl 4-(furan-3-yl)-2,6-dimethyl-1,4-dihydropyridine-3,5-dicarboxylate], 25.7%; to `CCOC(=O)C1=C(C)NC(C)=C(C(=O)OCC)C1c1ccc(CC)o1` [PT-121, diethyl 4-(5-ethylfuran-2-yl)-2,6-dimethyl-1,4-dihydropyridine-3,5-dicarboxylate], 54.8%.
Turning to `COCCOC(=O)C1=C(C)NC(C)=C(C(=O)OCCOC)C1c1sccc1Br` [PT-125, bis(2-methoxyethyl) 4-(3-bromothiophen-2-yl)-2,6-dimethyl-1,4-dihydropyridine-3,5-dicarboxylate], the inhibition at 10 µM stood at 10.3%.
As for `CC1=C(C(=O)OC(C)C)C(c2ccc(-c3ccc(Cl)cc3)o2)C(C(=O)OC(C)C)=C(C)N1` [PT-126, diisopropyl 4-(5-(4-chlorophenyl)furan-2-yl)-2,6-dimethyl-1,4-dihydropyridine-3,5-dicarboxylate], the inhibition at 10 µM was -39%.
Take `CC1=C(C(=O)OC(C)C)C(c2cnn(-c3ccc(F)cc3)c2C)C(C(=O)OC(C)C)=C(C)N1` [PT-127, diisopropyl 4-(1-(4-fluorophenyl)-5-methyl-1H-pyrazol-4-yl)-2,6-dimethyl-1,4-dihydropyridine-3,5-dicarboxylate]: the inhibition at 10 µM turned out to be 1.1%.
Same read-out and setting: to `CC1=C(C(=O)OCc2ccccc2)C(c2ccc3ccccc3c2)C(C(=O)OCc2ccccc2)=C(C)N1` [PT-129, dibenzyl 2,6-dimethyl-4-(naphthalen-2-yl)-1,4-dihydropyridine-3,5-dicarboxylate] belongs 17.6%; to `COc1ccc(COC(=O)C2=C(C)NC(C)=C(C(=O)OCc3ccc(OC)c(OC)c3)C2c2ccc3ccccc3c2)cc1OC` [PT-130, bis(3,4-dimethoxybenzyl) 2,6-dimethyl-4-(naphthalen-2-yl)-1,4-dihydropyridine-3,5-dicarboxylate], 15.7%; to `CCOC(=O)C1=C(C)NC2=C(C(=O)CC(C)(C)C2)C1c1cccc(C(=O)O)c1` (centres unmarked) [PT-132, 3-(3-(ethoxycarbonyl)-2,7,7-trimethyl-5-oxo-1,4,5,6,7,8-hexahydroquinolin-4-yl)benzoic acid], -5.3%.
With `CCOC(=O)C1=C(C)NC2=C(C(=O)CCC2)C1c1c(OC)ccc2ccccc12` (centres unmarked) [PT-134, ethyl 4-(2-methoxynaphthalen-1-yl)-2-methyl-5-oxo-1,4,5,6,7,8-hexahydroquinoline-3-carboxylate], the inhibition at 10 µM was determined as 15.5%.
The same measure, in the same setting: then `CCOC(=O)C1=C(CC)NC2=C(C(=O)CCC2)C1c1ccc(OC)c2ccccc12` (centres unmarked) [PT-136, ethyl 2-ethyl-4-(4-methoxynaphthalen-1-yl)-5-oxo-1,4,5,6,7,8-hexahydroquinoline-3-carboxylate], with 45.2%.
With `CCOC(=O)C1=C(C)NC2=C(C(=O)CCC2)C1c1ccc2cc(OC)ccc2c1` (centres unmarked) [PT-137, ethyl 4-(6-methoxynaphthalen-2-yl)-2-methyl-5-oxo-1,4,5,6,7,8-hexahydroquinoline-3-carboxylate], the inhibition at 10 µM turned out to be 25.3%.
On to `CCOC(=O)C1=C(C)NC2=C(C(=O)CCC2)C1c1ccc(OC)c2ccc(OC)cc12` (centres unmarked) [PT-138, ethyl 4-(4,7-dimethoxynaphthalen-1-yl)-2-methyl-5-oxo-1,4,5,6,7,8-hexahydroquinoline-3-carboxylate], for which the inhibition at 10 µM amounted to 34.1%.
With `CCOC(=O)C1=C(C)NC2=C(C(=O)CCC2)C1c1ccc(N(C)C)c2ccccc12` (centres unmarked) [PT-139, ethyl 4-(4-(dimethylamino)naphthalen-1-yl)-2-methyl-5-oxo-1,4,5,6,7,8-hexahydroquinoline-3-carboxylate], the inhibition at 10 µM turned out to be 21.8%.
Take `CCOC(=O)C1=C(C)NC2=C(C(=O)CCC2(C)C)C1c1ccc(Cl)s1` (centres unmarked) [PT-146, ethyl 4-(5-chlorothiophen-2-yl)-2,8,8-trimethyl-5-oxo-1,4,5,6,7,8-hexahydroquinoline-3-carboxylate]: the inhibition at 10 µM is 31.2%.
The same measure, in the same setting: to `CCCC1=C(C(=O)OCC)C(c2ccsc2)C2=C(CCCC2=O)N1` (centres unmarked) [PT-148, ethyl 5-oxo-2-propyl-4-(thiophen-3-yl)-1,4,5,6,7,8-hexahydroquinoline-3-carboxylate] belongs 7.6%; to `CCCC1=C(C(=O)OCC)C(c2ccsc2)C2=C(CC(C)(C)CC2=O)N1` (centres unmarked) [PT-151, ethyl 7,7-dimethyl-5-oxo-2-propyl-4-(thiophen-3-yl)-1,4,5,6,7,8-hexahydroquinoline-3-carboxylate], 35%; to `CCCC1=C(C(=O)OCC)C(c2ccsc2)C2=C(CC(C(C)C)CC2=O)N1` (centres unmarked) [PT-152, ethyl 7-isopropyl-5-oxo-2-propyl-4-(thiophen-3-yl)-1,4,5,6,7,8-hexahydroquinoline-3-carboxylate], 41.2%.
Consider `COCCOC(=O)C1=C(C)NC2=C(C(=O)CC(C)(C)C2)C1c1ccc(Oc2ccccc2)cc1` (centres unmarked) [PT-156, 2-methoxyethyl 2,7,7-trimethyl-5-oxo-4-(4-phenoxyphenyl)-1,4,5,6,7,8-hexahydroquinoline-3-carboxylate], for which the inhibition at 10 µM was determined as 36.6%.
Same read-out and setting: then `CC1=C(C(=O)OC(C)C)C(c2cccc3ccccc23)C2=C(CCCC2=O)N1` (centres unmarked) [PT-158, isopropyl 2-methyl-4-(naphthalen-1-yl)-5-oxo-1,4,5,6,7,8-hexahydroquinoline-3-carboxylate], with 38.7%.
